Counter-ions that a name gives are not always drawn.
Key:
Format in all cases: cell-based, human
brain endothelial cells = assay: TdTom-Br-EV uptake by brain endothelial cells with endocytosis inhibitors (flow cytometry); conditions: 30 min pretreatment: chlorpromazine 20 μM, ML141 100 μM, EIPA 100 μM, cytochalasin D 500 nM, filipin III 10 μM; 3 hours with EVs
Text: The mechanistic details of Br-EV transport was further explored through brain endothelial cells by focusing on the three major steps of transcytosis: 1) endocytosis through the apical (luminal) membrane of brain endothelial cells, 2) transfer through the endocytic pathway, and 3) release into the extracellular environment from the basolateral (abluminal) membrane. To evaluate the mechanism(s) of uptake, brain endothelial cells were pretreated with chemical inhibitors of the different endocytosis pathways and measured the uptake of TdTom-Br-EVs via flow cytometry.
To evaluate the uptake of EVs by brain ECs, astrocytes and pericytes, cells grown to confluence in 96-well plates were incubated with 2×10^9 particle/well of tdTomato P- and Br-EVs. After 2 hours of incubation, cells were washed for 3 times and were fixed for imaging. Images from four different fields were taken using a Zeiss Fluorescent microscope and the level of fluorescence intensity was analyzed using the ImageJ software. To eliminate the confounding effect of cell size on the uptake level, fluorescent intensity for tdTom-EVs was measured per unit of cell surface area. For endocytosis inhibition studies, brain ECs cultured in 12-well plates were treated with chlorpromazine hydrochloride (Millipore Sigma, Cat #C8138, 20 μM), ML141 (100 μM, Millipore Sigma, Cat #217708), 5-(N-Ethyl-N-isopropyl) amiloride (EIPA) (100 μM, Tocris, Cat #3378), cytochalasin D (500 nM, Tocris, Cat #1233), and filipin III (10 μM, Millipore Sigma, Cat #F4767) for 30 minutes prior to addition of TdTom-Br-EVs (10^10 particle/well). Following 3 hours of incubation with EVs, cells were washed and EV uptake was measured by flow cytometry using a BD FACSCalibur flow cytometer (BD Biosciences, San Jose, Calif.).

astrocytes = assay: TdTom-EV uptake by astrocytes with endocytosis inhibitors (flow cytometry); conditions: 30 min pretreatment: chlorpromazine 20 μM, EIPA 50 μM, filipin III 10 μM, ML141 100 μM, CAS 1177865-17-6 10 μM; 3 hours with EVs
Text: To elucidate the mechanisms underlying the uptake of breast cancer-derived EVs by astrocytes, the possibility of the involvement of specific endocytosis mechanism(s) in this uptake was explored. Endocytic pathways such as macropinocytosis, clathrin-dependent and caveolin-dependent endocytosis have been commonly reported to be involved in the uptake of EVs by different cell types^16.
Next, the role of clathrin-caveolin-independent pathways in EV uptake was explored, focusing on rac1 and Cdc42, two major players in this process^17.
To evaluate the uptake of EVs by astrocytes for endocytosis inhibition studies, astrocytes were treated with chlorpromazine hydrochloride (Millipore Sigma, Cat #C8138, 20 μM), 5-(N-Ethyl-N-isopropyl) amiloride (EIPA) (50 μM, Tocris, Cat #3378), and filipin III (10 μM, Millipore Sigma, Cat #F4767), CDC42/Rac1 inhibitor, ML141 (100 μM, Millipore Sigma, Cat #217708), and rac1 inhibitor, CAS 1177865-17-6 (10 μM, Millipore Sigma, Cat #553502) for 30 min.

[1] = system: brain endothelial monolayer; assay: Static Transwell BBB model, transport of Gaussia luciferase-labeled Br-EVs; conditions: 30 min pretreatment, then Br-EVs 2 hours at 37° C.
Experimental: To verify that the source of the detected signal in the abluminal chamber was the luciferase associated with intact EVs as opposed to free luciferase, the media from the lower chamber was ultracentrifuged on an iodixanol OPTIPREP™ density gradient. As a positive control, Gaussia luciferase-labeled Br-EVs were added directly to the top of a gradient for ultracentrifugation.
To evaluate the effect of temperature, filters were incubated at either 4° C. or 37° C. To evaluate the effect of endocytosis, filters were pretreated with Dynasore hydrate (Millipore Sigma, Cat #D7693) for 30 minutes prior to adding the EVs and then incubated at 37° C. The media from the lower chamber was collected after 2 hours and luminescence intensity was measured as described before. […] After 4 hours of ultracentrifugation, different density fractions were isolated and luminescence intensity was measured for each fraction. […] After 2 hours of incubation, the permeability of the filters to 10 KDa ALEXA FLUOR™ 647 Dextran and 70 KDa FITC-dextran was measured as described above.

abluminal signal of Br-EV transport [1] | Structure (SMILES) | uptake of Br-EVs by brain endothelial cells (brain endothelial cells) | uptake of breast cancer-derived EVs by astrocytes (astrocytes)
– | COc1ccc(C2=NN(c3ccc(S(N)(=O)=O)cc3)C(c3ccccc3)C2)cc1 (centres unmarked) [ML141] | significantly decreased | significantly decreased
– | CN(C)CCCN1c2ccccc2Sc2ccc(Cl)cc21 [chlorpromazine, chlorpromazine hydrochloride] | significantly decreased | did not affect
– | CCN(c1nc(N)c(C(=O)N=C(N)N)nc1Cl)C(C)C [EIPA, 5-(N-Ethyl-N-isopropyl) amiloride] | significant decrease | did not affect
– | C=C1[C@@H](C)[C@H]2[C@H](Cc3ccccc3)NC(=O)[C@]23[C@H](OC(C)=O)/C=C/[C@@](C)(O)C(=O)[C@@H](C)C/C=C/[C@H]3[C@@H]1O [cytochalasin D] | significant decrease | –
– | CCCCC[C@@H](O)[C@H]1C(=O)O[C@H](C)[C@@H](O)/C=C/C=C/C=C/C=C/C=C(\C)[C@@H](O)C[C@H](O)C[C@H](O)C[C@H](O)C[C@H](O)C[C@H](O)C[C@@H]1O [Filipin, filipin III] | no effect | did not affect
dose-dependent decrease | O=C(N/N=C/c1ccc(O)c(O)c1)c1cc2ccccc2cc1O [Dynasore] | – | –
– | CCN(CC)CCCC(C)Nc1nc(C)cc(Nc2ccc3nc(C)cc(N)c3c2)n1.Cl.Cl.Cl (centres unmarked) [CAS 1177865-17-6] | – | no effect
